According to article PMC10353061 (ACS Pharmacology & Translational Science, 2023):

Assays:
HCT116 colon cancer cell = conditions: cited from earlier work
[1] = test system: Wnt/β-catenin signaling pathway; experiment: Topflash/Fopflash luciferase report assay in SW480 cells; assay type: cell-based; conditions: 30 μM
Source text: (§1) We synthesized derivatives 5–10 bearing 5-membered and 6-membered heterocyclic rings at the position 3′ or 4′ of the B phenyl ring. […] SW480 cells show higher Wnt activation compared to HCT116 cells.[28] […] In SW480 cells, compounds 5–10 were in the 1.75%(10)–7.32%(7) range of residual luciferase activity, except 6(28.46%), compared to 3(21.61%); in HCT116 cells, compounds 5–10 were in the 0.37%(7)–5.88%(5) range, compared to 3 (18.75%) (Table 1 and Figure 5).
(§2) Figure 5 Residual luciferase activity (%) by compounds 5–10 and reference compound 3 in SW480 cells (left panel) and HCT116 cells (right panel). Data are represented as the mean ± SD of three independent experiments, each performed in triplicate.
(§3) Briefly, the Topflash plasmid (Beyotime, Zhejiang, China) contains 7 TCF/LEF binding sites, while the Fopflash plasmid (Beyotime, Zhejiang, China) contains 6 mutated TCF/LEF binding sites, which are located in the upstream of the luciferase reporter. SW480 and HCT116 cell lines were cultured in 90% DMEM (HyClone, #SH30243.01) plus 10% fetal bovine serum (Gibco, #10270) and plasmocin (mpp-39-03, InvivoGen), respectively. The Topflash/Fopflash vector and plasmid pTK-renilla together were co-transfected to the cells. […] The Dual-Glo luciferase assay kit (Promega, #E1910) was used to measure the luminescence intensity (Figure 2).

[2] = test system: Wnt/β-catenin signaling pathway; experiment: Topflash/Fopflash luciferase report assay in HCT116 cells; assay type: cell-based, human; conditions: 30 μM
Source text: as §1, §2, §3

HCC1806 cells = experiment: Cell proliferation by live-cell imaging (IncuCyte), HCC1806 TNBC cells; assay type: cell-based; conditions: 40 μM, 72 h
Method: (§4) As TNBC is a highly heterogeneous subgroup, including breast cancers with different molecular and phenotypic traits,[37] effects of compounds 5–10 on cell proliferation were also tested in additional TNBC cell lines, i.e., HCC1806 and HCC1937. As inhibitors of HCC1806 TNBC cells, compounds 5–10 were evaluated in parallel with compounds 3, ICG-001, and iCRT3 (Figures 10 and S12–S19, Supporting Information); as inhibitors of the HCC1937 TNBC cells, 5–10 were compared with 3 and iCRT3 (Figures 10, S20, and S21). Effects on cell proliferation were evaluated as above for the MDA-MB-231 TNBC cells at the latest time point of observation of 72 h.
(§5) Figure 10 Inhibition of MDA-MB-231, HCC1806, and HCC1937 TNBC cell growth by compounds 5–10 and reference compounds 3, […], and iCRT3 at 40 μM. Cell growth inhibition was quantified using the IncuCyte cell-by-cell analysis software, by comparison with the growth of DMSO-treated cells at 72 h, set at 100% (mean ± SD, n = 3, one-way ANOVA, **p ≤ 0.01, ****p ≤ 0.0001).
(§6) Cell proliferation of breast cancer cell lines upon continuous treatment with select compounds was evaluated by the real-time quantitative live-cell imaging system. MDA-MB-231 (1500 cells/well), HCC1806 (2000 cells/well), and HCC1937 (3000 cells/well) were seeded in 96-well plates, treated with increasing doses of selected compounds and images (5 images/well) were acquired every 8 h for 3 days at 10× magnification in an IncuCyte SX5 live-content imaging system (Essen Bioscience) at 37 °C with 5% CO2. Images were analyzed using IncuCyte cell-by-cell analysis software to detect and quantify live cells (phase-contrast). The number of cells at each time point was quantified using IncuCyte cell-by-cell analysis software, and cell growth was evaluated as the normalized ratio between counted cells at each time point normalized to those counted at time 0. Graph drawing and statistical analyses were performed in GraphPad Prism according to the statistical tests described in the figure legends.

HCC1937 cells = experiment: Cell proliferation by live-cell imaging (IncuCyte), HCC1937 TNBC cells; assay type: cell-based; conditions: 40 μM, 72 h
Method: as §4, §5, §6

MDA-MB-231 cells = experiment: Cell proliferation by live-cell imaging (IncuCyte), MDA-MB-231 TNBC cells; assay type: cell-based; conditions: for effect on MDA-MB-231 cell proliferation: 40 μM, 48 and 72 h
Source text: TNBC represents approximately 10–15% of all breast cancers and is the most aggressive subtype of breast cancer. Patients with TNBC have a poor outcome compared to the other subtypes of breast cancer. In the breast cancer tissue, β-catenin is overexpressed compared to the normal tissue. The overexpression of β-catenin is associated with TNBC and lymph node metastasis. […] There is a quest for the development of new therapies to treat TNBC. […] Effects on cell proliferation of MDA-MB-231 TNBC cells were evaluated by live-time cell imaging using the Incucyte S5 system.
as §5, §6

SW620 cells = experiment: Inhibition of SW620 cells; assay type: cell-based; conditions: Homo sapiens, SW-620, in the combination 9 at constant 0.25 μM
β-catenin = experiment: Wnt reporter assay (TOP/FOP luciferase) in LiCl-treated HCT116 cells; assay type: cell-based; conditions: Homo sapiens, HCT-116, read-out: IC50, inhibition of β-catenin (luciferase reporter), LiCl 50 mM, 24 h
Method: Compounds 9 and 10 were assayed at increasing 10 and 100 nM and 1 μM concentrations in HCT116 cells transfected with luciferase-based vectors and treated with LiCl (50 mM). TOP TK is a well-established Wnt reporter vector containing eight sequences of Tcf/Lef binding site upstream of the timidine kinase (TK) minimal promoter, driving the expression of firefly luciferase.
Figure 6 HCT116 cells were transfected with luciferase-based vectors and treated with LiCl (50 mM) together with increasing concentrations of compound 9 or 10. Cells were harvested 24 h post-treatment and assayed for luciferase activity. Inhibitions were calculated as the luciferase/renilla ratio of the treated samples vs. the luciferase/renilla ratio of the untreated (control) samples. Data are represented as the mean ± SD of three independent experiments, each performed in triplicate. **p < 0.01, ***p < 0.001, n.s = not significant, as determined by analysis of variance (ANOVA).
Luciferase assays were performed as previously described.[58],[59] Briefly, HCT116 cells were transfected with Topflash reporter (M50 Super 8x TOPFlash, containing 8 repeats of TCF/LEF binding sites) or Fopflash reporter (M51 Super 8x FOPFlash, containing the mutated TCF/LEF binding sites) plasmids using the Dreamfect Gold Transfection Reagent (#DG80500, OZ Biosciences). […]

Myc = Myc and β-catenin expression (western blot, qPCR) in LiCl-treated HCT116 cells; assay type: cell-based, human; conditions: HCT116, LiCl 50 mM, 24 h
Method: (§7) To this end, HCT116 cells were treated for 24 h with 50 mM LiCl and increasing concentrations (10–50–100 μM) of the two compounds.
Figure 7 Top panels. […] Vinculin was used as a loading control. […] Bottom panels. c-Myc mRNA levels were measured by qPCR and normalized to the expression of β-actin mRNA and expressed as fold change relative to the control sample. Results represent the mean ± SD of three independent experiments, each performed in triplicate. **p < 0.01, ***p < 0.001 as determined by ANOVA.
Briefly, total proteins from the cells in each group were subjected to 12% denaturing sodium dodecyl sulfate-polyacrylamide gel electrophoresis (SDS-PAGE). The proteins were then transferred onto a poly(vinylidene fluoride) (PVDF) membrane (Millipore). […] After the membrane was fully washed, it was incubated with secondary antibodies at 37 °C for 45 min goat anti-rabbit IgG H&L (HRP) (ab97051), Abcam, MA. The membrane was washed with Tris-buffered saline/Tween-20 (TBST) 4 times at room temperature for 14 min each time. Next, the samples were exposed and imaged (Sigma-Aldrich Chemical) using the enhanced chemiluminescence (ECL) method (Pierce Biotechnology).

Fgf20 and Sal4 = experiment: Wnt-target gene mRNA levels (qPCR) in LiCl-treated HCT116 cells; assay type: cell-based, human; conditions: HCT116, LiCl 50 mM, 24 h, 10 μM
Method: as §7
HCT116 was treated with LiCl (50 mM) and 10 μM compound 9 or 10 for 24 h. Fgf20, Sall4 (Wnt-target genes) mRNA levels were measured by qPCR and normalized to the expression of β-actin mRNA. Results are expressed as fold change relative to the control sample and represent the mean ± SD of three independent experiments, each performed in triplicate. *p < 0.05, **p < 0.01, ***p < 0.001 as determined by ANOVA.

[3] = test system: β-catenin/Tcf-4 interaction; experiment: Co-immunoprecipitation of β-catenin and Myc-tagged Tcf-4 in HCT116 cells; assay type: cell-based, human; conditions: HCT116 transfected with Myc-tagged Tcf-4, LiCl 50 mM, 50 μM, 24 h
Method: Toward this end, we performed a co-immunoprecipitation study in HCT116 cells transfected with Myc-tagged Tcf-4, treated with the two compounds, and immunoprecipitated with Myc antisera.
HCT116 cells were transiently transfected with the Myc-tagged Tcf-4 plasmid and treated with LiCl (50 mM) and 9 (50 μM) or 10 (50 μM) for 24 h. Lysates were immunoprecipitated using Myc-agarose beads and western blot analysis was performed. […] Myc-agarose beads saturated with the Myc-blocking peptide before immunoprecipitation were used as a negative control.
Co-immunoprecipitation assays were performed as previously described.[16],[60] Briefly, 2 × 10^4/cm^2 HCT116 cells were seeded in a 100 mm dish and incubated overnight at 37 °C. Cells were transfected with pcDNA/Myc Tcf-4 (Addgene plasmid #16512; http://n2t.net/addgene:16512; RRID:Addgene_16512)[29] and, after overnight incubation, were starved for 8 h in a medium containing Opti-MEM (#31985070, Thermo Fisher Scientific), FBS 0.5%, pen/strep 1%, NaPyr 1%, NeAA 1%, and then co-treated with 50 mM LiCl and DMSO or 50 μM compound 9 or 50 μM compound […] for 24 h. Cells were collected at the end of the treatments and lysed in a buffer containing 0.5% Triton X-100, 0.5 mM EDTA, and 1 mM DTT. […] Chemioluminescence was detected using WesternBright ECL (#K-12045-D50, Advansta), according to the manufacturer’s protocol.

Row | Compound | melting point [°C] | % Luciferase Activity SW480 (residual) [1] [%] | % Luciferase Activity HCT116 (residual) [2] [%] | effect on HCC1806 cell growth (HCC1806 cells) | effect on HCC1937 cell growth (HCC1937 cells) | other results
1 | COC(=O)c1ccc(NS(=O)(=O)c2ccc(Br)cc2)cc1 [Compound 1] |  |  |  |  |  | IC50, HCT116 colon cancer cell growth (HCT116 colon cancer cell): submicromolar
2 | CCOC(=O)c1ccc(NS(=O)(=O)c2ccc(Br)cc2)cc1 [Compound 3, Ethyl 4-((4-bromophenyl)sulfonamido)benzoate, reference compound] |  | 21.61 | 18.75 | mild efficacy | mild efficacy | 
3 | O=S(=O)(Nc1cccc(-c2ccco2)c1)c1ccc(Br)cc1 [Compound 5, 4-Bromo-N-(3-(furan-2-yl)phenyl)benzenesulfonamide] | 147 to 150 | 4.80 | 5.88 | significant inhibition | significant inhibition | effect on MDA-MB-231 cell proliferation (MDA-MB-231 cells): significant antiproliferative effects
4 | O=c1[nH]cc(F)c(=O)[nH]1 [Compound 5-FU, 5-fluorouracil, reference compound] |  |  |  |  |  | EC50 (SW620 cells): 103 µM
5 | O=S(=O)(Nc1ccc(-c2ccccn2)cc1)c1ccc(Cl)cc1 [Compound 10, 4-Chloro-N-(4-(pyridin-2-yl)phenyl)benzenesulfonamide] | 180 to 182 | 1.75 | 4.56 |  |  | IC50 (β-catenin): > 1 µM; inhibition of Myc expression (Myc; 10 μM): about 2.5 fold; protein and mRNA levels of Myc (Myc; 10–50–100 μM): significant dose-dependent inhibition; β-catenin protein levels (Myc; 10–50–100 μM): reduced only at the highest dose; mRNA levels of Wnt-target genes Fgf20 and Sal4 (Fgf20 and Sal4): strongly inhibited; association between β-catenin and Tcf-4 (co-immunoprecipitation) [3]: completely abrogated the association
6 | O=C1[C@H](Cc2ccc(O)cc2)N2C(=O)CCN(C(=O)NCc3ccccc3)[C@H]2CN1Cc1cccc2ccccc12 [ICG-001, reference compound] |  |  |  |  |  | reduction of MDA-MB-231 cell viability (MDA-MB-231 cells; even at the low dose of 0.49 μM): most effective compound

Now from value to compound, other results behind:

Row | melting point [°C] | Compound | % Luciferase Activity SW480 (residual) [1] [%] | % Luciferase Activity HCT116 (residual) [2] [%] | effect on HCC1806 cell growth (HCC1806 cells) | effect on HCC1937 cell growth (HCC1937 cells) | other results
7 | 175 to 177 | O=S(=O)(Nc1cccc(-c2ccccn2)c1)c1ccc(Br)cc1 [Compound 6, 4-Bromo-N-(3-(pyridin-2-yl)phenyl)benzenesulfonamide] | 28.46 | 5.14 | significant inhibition | significant inhibition | effect on MDA-MB-231 cell proliferation (MDA-MB-231 cells): significant antiproliferative effects
8 | 166 to 169 | O=S(=O)(Nc1cccc(-c2ccccn2)c1)c1ccc(Cl)cc1 [Compound 7, 4-Chloro-N-(3-(pyridin-2-yl)phenyl)benzenesulfonamide] | 7.32 | 0.37 | mild inhibitory effect |  | 
9 | 163 to 166 | O=S(=O)(Nc1ccc(-c2ccco2)cc1)c1ccc(Br)cc1 [Compound 8, 4-Bromo-N-(4-(furan-2-yl)phenyl)benzenesulfonamide] | 1.82 | 5.58 | mild inhibitory effect |  | 
